ChEMBL document CHEMBL3774387, “Synthesis and anticancer evaluation of spermatinamine analogues” (Bioorg Med Chem Lett, 2016)

Experiments:
MCF7 [1] = assay: Cytotoxicity against human MCF7 cells assessed as viable cells after 48 hrs by MTT assay; type: functional, cell-based; details: MCF7, 48 h
HeLa [2] = assay: Cytotoxicity against human HeLa cells assessed as viable cells after 48 hrs by MTT assay; type: functional, cell-based
[3] = Cytotoxicity against human DU145 cells assessed as viable cells after 24 hrs by MTT assay; type: functional, cell-based; details: DU-145, 24 h
MCF7 [4] = assay: Cytotoxicity against human MCF7 cells assessed as viable cells after 24 hrs by MTT assay; type: functional, cell-based; details: MCF7, 24 h
HeLa [5] = assay: Cytotoxicity against human HeLa cells assessed as viable cells after 24 hrs by MTT assay; type: functional, cell-based
[6] = Cytotoxicity against human DU145 cells assessed as viable cells after 48 hrs by MTT assay; type: functional, cell-based; details: DU-145, 48 h
[7] = Cytotoxicity against human DU145 cells assessed as growth inhibition at 1.25 uM after 24 hrs by MTT assay (reference value: 1.2 to 7.8%); type: functional; details: DU-145, 24 h, read-out: GI
[8] = Cytotoxicity against human DU145 cells assessed as growth inhibition at 100 uM after 24 hrs by MTT assay (reference value: 1.2 to 7.8%); type: functional; details: DU-145, 24 h, read-out: GI
MCF7 [9] = assay: Cytotoxicity against human MCF7 cells assessed as growth inhibition at 100 uM after 24 hrs by MTT assay (reference value: 2.7 to 9.3%); type: functional; details: MCF7, 24 h, read-out: GI
HeLa [10] = assay: Cytotoxicity against human HeLa cells assessed as growth inhibition at 100 uM after 24 hrs by MTT assay (reference value: 0 to 4.4%); type: functional; details: read-out: GI
[11] = Cytotoxicity against human DU145 cells assessed as growth inhibition at 5 uM after 24 hrs by MTT assay (reference value: 1.2 to 7.8%); type: functional; details: DU-145, 24 h, read-out: GI
[12] = Cytotoxicity against human DU145 cells assessed as growth inhibition at 50 uM after 24 hrs by MTT assay (reference value: 1.2 to 7.8%); type: functional; details: DU-145, 24 h, read-out: GI
MCF7 [13] = assay: Cytotoxicity against human MCF7 cells assessed as growth inhibition at 50 uM after 24 hrs by MTT assay (reference value: 2.7 to 9.3%); type: functional; details: MCF7, 24 h, read-out: GI
HeLa [14] = assay: Cytotoxicity against human HeLa cells assessed as growth inhibition at 10 uM after 24 hrs by MTT assay (reference value: 0 to 4.4%); type: functional; details: read-out: GI
HeLa [15] = assay: Cytotoxicity against human HeLa cells assessed as growth inhibition at 50 uM after 24 hrs by MTT assay (reference value: 0 to 4.4%); type: functional; details: read-out: GI
[16] = Cytotoxicity against human DU145 cells assessed as growth inhibition at 10 uM after 24 hrs by MTT assay (reference value: 1.2 to 7.8%); type: functional; details: DU-145, 24 h, read-out: GI
HeLa [17] = assay: Cytotoxicity against human HeLa cells assessed as growth inhibition at 5 uM after 24 hrs by MTT assay (reference value: 0 to 4.4%); type: functional; details: read-out: GI
MCF7 [18] = assay: Cytotoxicity against human MCF7 cells assessed as growth inhibition at 2.5 uM after 24 hrs by MTT assay (reference value: 2.7 to 9.3%); type: functional; details: MCF7, 24 h, read-out: GI
MCF7 [19] = assay: Cytotoxicity against human MCF7 cells assessed as growth inhibition at 10 uM after 24 hrs by MTT assay (reference value: 2.7 to 9.3%); type: functional; details: MCF7, 24 h, read-out: GI
MCF7 [20] = assay: Cytotoxicity against human MCF7 cells assessed as growth inhibition at 1.25 uM after 24 hrs by MTT assay (reference value: 2.7 to 9.3%); type: functional; details: MCF7, 24 h, read-out: GI
MCF7 [21] = assay: Cytotoxicity against human MCF7 cells assessed as growth inhibition at 25 uM after 24 hrs by MTT assay (reference value: 2.7 to 9.3%); type: functional; details: MCF7, 24 h, read-out: GI
HeLa [22] = assay: Cytotoxicity against human HeLa cells assessed as growth inhibition at 1.25 uM after 24 hrs by MTT assay (reference value: 0 to 4.4%); type: functional; details: read-out: GI
[23] = Cytotoxicity against human DU145 cells assessed as growth inhibition at 2.5 uM after 24 hrs by MTT assay (reference value: 1.2 to 7.8%); type: functional; details: DU-145, 24 h, read-out: GI
HeLa [24] = assay: Cytotoxicity against human HeLa cells assessed as growth inhibition at 2.5 uM after 24 hrs by MTT assay (reference value: 0 to 4.4%); type: functional; details: read-out: GI
HeLa [25] = assay: Cytotoxicity against human HeLa cells assessed as growth inhibition at 25 uM after 24 hrs by MTT assay (reference value: 0 to 4.4%); type: functional; details: read-out: GI
[26] = Cytotoxicity against human DU145 cells assessed as growth inhibition at 25 uM after 24 hrs by MTT assay (reference value: 1.2 to 7.8%); type: functional; details: DU-145, 24 h, read-out: GI
MCF7 [27] = assay: Cytotoxicity against human MCF7 cells assessed as growth inhibition at 5 uM after 24 hrs by MTT assay (reference value: 2.7 to 9.3%); type: functional; details: MCF7, 24 h, read-out: GI
[28] = Cytotoxicity against human DU145 cells assessed as viable cells after 24 hrs by Solid plate-based spot culture growth inhibition assay; type: functional, cell-based; details: DU-145, 24 h
MCF7 [29] = assay: Cytotoxicity against human MCF7 cells assessed as viable cells after 24 hrs by Solid plate-based spot culture growth inhibition assay; type: functional, cell-based; details: MCF7, 24 h
HeLa [30] = assay: Cytotoxicity against human HeLa cells assessed as growth inhibition at 5 uM by MTT assay; type: functional, cell-based; details: TDE = time-dependent effect
HeLa [31] = assay: Cytotoxicity against human HeLa cells assessed as growth inhibition at 5 uM after 48 hrs by MTT assay; type: functional; details: read-out: GI

SMILES | IC50 (MCF7 [1]) [µM] | IC50 (HeLa [2]) [µM] | IC50 [3] [µM] | IC50 (MCF7 [4]) [µM] | IC50 (HeLa [5]) [µM] | IC50 [6] [µM] | inhibition of growth at 1.25 µM [7] [%] | inhibition of growth at 100 µM [8] [%] | inhibition of growth at 100 µM (MCF7 [9]) [%] | inhibition of growth at 100 µM (HeLa [10]) [%] | inhibition of growth at 5 µM [11] [%] | inhibition of growth at 50 µM [12] [%] | inhibition of growth at 50 µM (MCF7 [13]) [%] | inhibition of growth at 10 µM (HeLa [14]) [%] | inhibition of growth at 50 µM (HeLa [15]) [%] | inhibition of growth at 10 µM [16] [%] | inhibition of growth at 5 µM (HeLa [17]) [%] | inhibition of growth at 2.5 µM (MCF7 [18]) [%] | inhibition of growth at 10 µM (MCF7 [19]) [%] | inhibition of growth at 1.25 µM (MCF7 [20]) [%] | other results
CO/N=C(\Cc1cc(Br)c(OC)c(Br)c1)C(=O)NCCCCCNC(=O)/C(Cc1cc(Br)c(OC)c(Br)c1)=N/OC | > 100 | > 100 | > 100 | > 100 | > 100 | > 100 |  |  |  |  |  |  |  |  |  |  |  |  |  |  | 
CO/N=C(\Cc1cc(Br)c(OC)c(Br)c1)C(=O)NCCCNCCCCNCCCNC(=O)/C(Cc1cc(Br)c(OC)c(Br)c1)=N/OC | 19.1 | 25 | 26.2 | 24.8 | 26.3 | 27.7 | 24.6 | 98.7 | 98.1 | 97.4 | 26.1 | 99.2 | 98.4 | 20.2 | 97.8 | 34.3 | 0 | 20.8 | 33.1 | 15.4 | inhibition of growth at 25 µM (MCF7 [21]): 55.5%; inhibition of growth at 1.25 µM (HeLa [22]): 0%; inhibition of growth at 2.5 µM [23]: 24.1%; inhibition of growth at 2.5 µM (HeLa [24]): 0%; inhibition of growth at 25 µM (HeLa [25]): 70.4%; inhibition of growth at 25 µM [26]: 55%; inhibition of growth at 5 µM (MCF7 [27]): 22.3%
CO/N=C(\Cc1cc(Br)c(OC)c(Br)c1)C(=O)NCCNCCNC(=O)/C(Cc1cc(Br)c(OC)c(Br)c1)=N/OC | 30.9 | 10.8 | 25.8 | 27.1 | 25.8 | 27.9 | 19.9 | 95.6 | 96.9 | 97.1 | 22.1 | 99 | 96.9 | 24.5 | 95 | 20.2 | 0.1 | 23.9 | 23 | 11.4 | inhibition of growth at 25 µM (MCF7 [21]): 46.2%; inhibition of growth at 1.25 µM (HeLa [22]): 11%; inhibition of growth at 2.5 µM [23]: 21.3%; inhibition of growth at 2.5 µM (HeLa [24]): 4.8%; inhibition of growth at 25 µM (HeLa [25]): 80.1%; inhibition of growth at 25 µM [26]: 26.7%; inhibition of growth at 5 µM (MCF7 [27]): 20.3%
COc1c(Br)cc(C/C(=N\OCc2ccccc2)C(=O)NCCCCCNC(=O)/C(Cc2cc(Br)c(OC)c(Br)c2)=N/OCc2ccccc2)cc1Br | > 100 | > 100 | > 100 | > 100 | > 100 | > 100 |  |  |  |  |  |  |  |  |  |  |  |  |  |  | 
COc1c(Br)cc(C/C(=N\O)C(=O)NCCCN(C)CCCCN(C)CCCNC(=O)/C(Cc2cc(Br)c(OC)c(Br)c2)=N/O)cc1Br |  |  |  |  |  |  |  |  |  |  |  |  |  |  |  |  |  |  |  |  | IC50 [28]: 1.6 µM; IC50 (MCF7 [29]): 1.6 µM
COc1c(Br)cc(C/C(=N\O)C(=O)NCCCNCCCCNCCCNC(=O)/C(Cc2cc(Br)c(OC)c(Br)c2)=N/O)cc1Br | > 100 | > 100 | > 100 | > 100 | > 100 | > 100 |  |  |  |  |  |  |  |  |  |  |  |  |  |  | growth inhibition (GI) (HeLa [30]): tde; inhibition of growth at 5 µM (HeLa [31]): 90%
COc1c(Br)cc(C/C(=N\OCc2ccccc2)C(=O)NCCNCCNC(=O)/C(Cc2cc(Br)c(OC)c(Br)c2)=N/OCc2ccccc2)cc1Br | > 100 | > 100 | > 100 | > 100 | > 100 | > 100 |  |  |  |  |  |  |  |  |  |  |  |  |  |  | 
COc1c(Br)cc(C/C(=N\OCc2ccccc2)C(=O)NCCCNCCCCNCCCNC(=O)/C(Cc2cc(Br)c(OC)c(Br)c2)=N/OCc2ccccc2)cc1Br | 3.4 | 2.9 | 4 | 4.5 | 4 | 4.6 | 15.5 | 97.3 | 96.4 | 94.7 | 68.2 | 98.4 | 97.7 | 98.3 | 96.9 | 98.5 | 93.5 | 30 | 98.9 | 19.2 | inhibition of growth at 25 µM (MCF7 [21]): 97.6%; inhibition of growth at 1.25 µM (HeLa [22]): 0%; inhibition of growth at 2.5 µM [23]: 24.4%; inhibition of growth at 2.5 µM (HeLa [24]): 23.5%; inhibition of growth at 25 µM [26]: 98.6%; inhibition of growth at 5 µM (MCF7 [27]): 58.6%
COc1c(Br)cc(C/C(=N\O)C(=O)NCCCCCNC(=O)/C(Cc2cc(Br)c(OC)c(Br)c2)=N/O)cc1Br | > 100 | > 100 | > 100 | > 100 | > 100 | > 100 |  |  |  |  |  |  |  |  |  |  |  |  |  |  | 
COc1c(Br)cc(C/C(=N\O)C(=O)NCCNCCNC(=O)/C(Cc2cc(Br)c(OC)c(Br)c2)=N/O)cc1Br | > 100 | > 100 | > 100 | > 100 | > 100 | > 100 |  |  |  |  |  |  |  |  |  |  |  |  |  |  | 
